In ChEMBL document CHEMBL1201861, “Genomics of Drug Sensitity in Cancer screening data, Wellcome Trust Sanger Institute”:

Columns and labels:
Assay in all cases: cells
UACC-257 = type: functional, cell-based, Homo sapiens; details: Homo sapiens, UACC-257
Description: SANGER: Inhibition of human UACC-257 cell growth in a cell viability assay.

BT-474 = type: functional, cell-based, Homo sapiens; details: Homo sapiens, BT-474
Description: SANGER: Inhibition of human BT-474 cell growth in a cell viability assay.

COLO-320-HSR = type: functional, cell-based, Homo sapiens; details: Homo sapiens, COLO-320-HSR;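 also: growth inhibition of COLO-320-HSR cells, determined with a cell viability assay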
Description: SANGER: Inhibition of human COLO-320-HSR cell growth in a cell viability assay.

DMS-114 = type: functional, cell-based, Homo sapiens; details: Homo sapiens, DMS-114
KM-H2 = type: functional, cell-based, Homo sapiens; details: Homo sapiens, KM-H2;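 also: growth inhibition of KM-H2 cells, read out by a cell viability assay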
Description: SANGER: Inhibition of human KM-H2 cell growth in a cell viability assay.

SNU1 = type: functional, cell-based, Homo sapiens; details: Homo sapiens, SNU1;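 also: growth inhibition of human NCI-SNU-1 cells, measured with a cell viability assay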
Description: SANGER: Inhibition of human NCI-SNU-1 cell growth in a cell viability assay.

NCI-N87 = type: functional, cell-based; details: Homo sapiens;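 also: growth inhibition of human NCI-N87 cells, read out with a cell viability assay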
Description: SANGER: Inhibition of human NCI-N87 cell growth in a cell viability assay.

SNU-5 = type: functional, cell-based, Homo sapiens; details: Homo sapiens, SNU-5;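 also: cell viability readout used to measure growth inhibition in human NCI-SNU-5 cells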
Description: SANGER: Inhibition of human NCI-SNU-5 cell growth in a cell viability assay.

D-247MG = type: functional, cell-based; details: Homo sapiens
Description: SANGER: Inhibition of human D-247MG cell growth in a cell viability assay.

IST-SL1 = type: functional, cell-based, Homo sapiens; details: Homo sapiens, IST-SL1;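 also: growth inhibition of human IST-SL1 cells, read out with a cell viability assay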
Description: SANGER: Inhibition of human IST-SL1 cell growth in a cell viability assay.

J-RT3-T3-5 = type: functional, cell-based, Homo sapiens; details: Homo sapiens, J-RT3-T3-5;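 also: cell viability assay measuring growth inhibition of human J-RT3-T3-5 cells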
Description: SANGER: Inhibition of human J-RT3-T3-5 cell growth in a cell viability assay.

NOMO-1 = type: functional, cell-based, Homo sapiens; details: Homo sapiens, NOMO-1;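 also: growth inhibition of human NOMO-1 cells measured by a cell viability assay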
Description: SANGER: Inhibition of human NOMO-1 cell growth in a cell viability assay.

PSN1 = type: functional, cell-based, Homo sapiens; details: Homo sapiens, PSN1;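 also: suppression of growth of human PSN1 cells, read out by a cell viability assay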
Description: SANGER: Inhibition of human PSN1 cell growth in a cell viability assay.

C8166 = type: functional, cell-based, Homo sapiens; details: Homo sapiens, C8166;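 also: growth inhibition of human C8166 cells measured by a cell viability assay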
Description: SANGER: Inhibition of human C8166 cell growth in a cell viability assay.

GAK = type: functional, cell-based, Homo sapiens; details: Homo sapiens, GAK;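 also: cell growth inhibition read out by a cell viability assay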
Description: SANGER: Inhibition of human GAK cell growth in a cell viability assay.

DOHH-2 = type: functional, cell-based, Homo sapiens; details: Homo sapiens, DOHH-2;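 also: growth inhibition of human DOHH-2 cells, read out with a cell viability assay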
Description: SANGER: Inhibition of human DOHH-2 cell growth in a cell viability assay.

TE-8 = type: functional, cell-based, Homo sapiens; details: Homo sapiens, TE-8;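 also: growth inhibition of TE-8 cells, measured with a cell viability readout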
Description: SANGER: Inhibition of human TE-8 cell growth in a cell viability assay.

U-87 MG = type: functional, cell-based, Homo sapiens, U-87MG ATCC; details: Homo sapiens, U-87 MG;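 also: growth inhibition of the cells measured with a viability assay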
Description: SANGER: Inhibition of human U-87-MG cell growth in a cell viability assay.

DU-4475 = type: functional, cell-based, Homo sapiens; details: Homo sapiens, DU-4475
Description: SANGER: Inhibition of human DU-4475 cell growth in a cell viability assay.

A704 = type: functional, cell-based; details: Homo sapiens;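 also: growth inhibition of human A704 cells, read out with a cell viability assay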
Description: SANGER: Inhibition of human A704 cell growth in a cell viability assay.

HEL = type: functional, cell-based, Homo sapiens; details: Homo sapiens, HEL;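 also: growth inhibition of HEL cells, read out with a cell viability assay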
Description: SANGER: Inhibition of human HEL cell growth in a cell viability assay.

RS4-11 = type: functional, cell-based, Homo sapiens; details: Homo sapiens, RS4-11;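 also: growth inhibition of RS4-11 cells, read out by a cell viability assay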
Description: SANGER: Inhibition of human RS4-11 cell growth in a cell viability assay.

SK-NEP-1 = type: functional, cell-based, Homo sapiens; details: Homo sapiens, SK-NEP-1;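 also: growth inhibition of human SK-NEP-1 cells, read out by a cell viability assay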
Description: SANGER: Inhibition of human SK-NEP-1 cell growth in a cell viability assay.

NCI-H69 = type: functional, cell-based, Homo sapiens; details: Homo sapiens, NCI-H69;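 also: growth inhibition of the cell line, read out with a cell viability assay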
Description: SANGER: Inhibition of human NCI-H69 cell growth in a cell viability assay.

L-428 = type: functional, cell-based, Homo sapiens; details: Homo sapiens, L-428
Description: SANGER: Inhibition of human L-428 cell growth in a cell viability assay.

NKM-1 = type: functional, cell-based, Homo sapiens; details: Homo sapiens, NKM-1;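 also: growth inhibition of NKM-1 cells, read out with a cell viability assay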
Description: SANGER: Inhibition of human NKM-1 cell growth in a cell viability assay.

DEL = type: functional, cell-based, Homo sapiens; details: Homo sapiens, DEL;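 also: growth inhibition of the human DEL cell line, read out with a cell viability assay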
Description: SANGER: Inhibition of human DEL cell growth in a cell viability assay.

RKO = type: functional, cell-based, Homo sapiens; details: Homo sapiens, RKO;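 also: growth inhibition of human RKO cells, read out with a cell viability assay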
Description: SANGER: Inhibition of human RKO cell growth in a cell viability assay.

LXF-289 cell line = type: functional, cell-based; details: Homo sapiens
Description: SANGER: Inhibition of human LXF-289 cell growth in a cell viability assay.

CTV-1 = type: functional, cell-based, Homo sapiens; details: Homo sapiens, CTV-1;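 also: growth inhibition of the cell line, read out with a cell viability assay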
Description: SANGER: Inhibition of human CTV-1 cell growth in a cell viability assay.

HCE-4 = type: functional, cell-based; details: Homo sapiens;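 also: cell viability assay measuring inhibition of growth in the human HCE-4 cell line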
Description: SANGER: Inhibition of human HCE-4 cell growth in a cell viability assay.

CGTH-W-1 = type: functional, cell-based, Homo sapiens; details: Homo sapiens, CGTH-W-1;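 also: growth inhibition of human CGTH-W-1 cells measured by cell viability assay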
Description: SANGER: Inhibition of human CGTH-W-1 cell growth in a cell viability assay.

Becker = type: functional, cell-based, Homo sapiens; details: Homo sapiens, Becker;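 also: growth inhibition of Becker cells, read out with a cell viability assay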
Description: SANGER: Inhibition of human Becker cell growth in a cell viability assay.

ATN-1 = type: functional, cell-based, Homo sapiens; details: Homo sapiens, ATN-1;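 also: growth inhibition of human ATN-1 cells, read out with a cell viability assay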
Description: SANGER: Inhibition of human ATN-1 cell growth in a cell viability assay.

SNU-C2B = type: functional, cell-based; details: Homo sapiens;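 also: cell viability readout used to measure compound-driven suppression of SNU-C2B cell proliferation, IC50 marking half-maximal growth inhibition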
Description: SANGER: Inhibition of human SNU-C2B cell growth in a cell viability assay.

U-266 = type: functional, cell-based, Homo sapiens; details: Homo sapiens, U-266
Description: SANGER: Inhibition of human U-266 cell growth in a cell viability assay.

COLO-800 = type: functional, cell-based, Homo sapiens; details: Homo sapiens, COLO-800;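 also: growth inhibition of COLO-800 cells, read out with a cell viability assay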
Description: SANGER: Inhibition of human COLO-800 cell growth in a cell viability assay.

NEC8 = type: functional, cell-based, Homo sapiens; details: Homo sapiens, NEC8;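 also: growth inhibition of human NEC8 cells, read out by a cell viability assay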
Description: SANGER: Inhibition of human NEC8 cell growth in a cell viability assay.

NB10 = type: functional, cell-based, Homo sapiens; details: Homo sapiens, NB10;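 also: growth inhibition of NB10 cells, read out by a cell viability assay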
Description: SANGER: Inhibition of human NB10 cell growth in a cell viability assay.

NCI-H1092 = type: functional, cell-based, Homo sapiens; details: Homo sapiens, NCI-H1092;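 also: cell growth inhibition measured with a cell viability assay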
Description: SANGER: Inhibition of human NCI-H1092 cell growth in a cell viability assay.

EW-13 = type: functional, cell-based, Homo sapiens; details: Homo sapiens, EW-13; read-out: IC50;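 also: growth inhibition of EW-13 cells, read out with a cell viability assay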
Description: SANGER: Inhibition of human EW-13 cell growth in a cell viability assay.

OVCAR-4 = type: functional, cell-based, Homo sapiens; details: Homo sapiens, OVCAR-4;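 also: growth inhibition of human OVCAR-4 cells, measured with a cell viability assay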
Description: SANGER: Inhibition of human OVCAR-4 cell growth in a cell viability assay.

A498 = type: functional, cell-based, Homo sapiens; details: Homo sapiens, A498;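 also: growth inhibition of human A498 cells, read out with a cell viability assay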
Description: SANGER: Inhibition of human A498 cell growth in a cell viability assay.

COLO-684 = type: functional, cell-based, Homo sapiens; details: Homo sapiens, COLO-684
Description: SANGER: Inhibition of human COLO-684 cell growth in a cell viability assay.

TK-10 = type: functional, cell-based, Homo sapiens; details: Homo sapiens, TK-10;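 also: growth inhibition of TK-10 cells, read out in a cell viability assay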
Description: SANGER: Inhibition of human TK10 cell growth in a cell viability assay.

COLO-829 = type: functional, cell-based, Homo sapiens; details: Homo sapiens, COLO-829
Description: SANGER: Inhibition of human COLO-829 cell growth in a cell viability assay.

NCI-H526 = type: functional, cell-based, Homo sapiens; details: Homo sapiens, NCI-H526;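 also: growth inhibition of the human NCI-H526 cell line, measured by a cell viability assay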
Description: SANGER: Inhibition of human NCI-H526 cell growth in a cell viability assay.

NCI-H1770 = type: functional, cell-based, Homo sapiens; details: Homo sapiens, NCI-H1770;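 also: growth inhibition of NCI-H1770 cells determined with a viability readout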
Description: SANGER: Inhibition of human NCI-H1770 cell growth in a cell viability assay.

LS-411N = type: functional, cell-based, Homo sapiens; details: Homo sapiens, LS-411N
D283 Med = type: functional, cell-based, Homo sapiens; details: Homo sapiens, D283 Med
Description: SANGER: Inhibition of human D-283MED cell growth in a cell viability assay.

CN(NC(=O)CC(=O)NN(C)C(=S)c1ccccc1)C(=S)c1ccccc1 [ELESCLOMOL]
IC50 (UACC-257): 22 nM
IC50 (BT-474): 19.2 nM
IC50 (COLO-320-HSR): > 200 nM
IC50 (DMS-114): 9.43 nM
IC50 (KM-H2): > 200 nM
IC50 (SNU1): 4.86 nM
IC50 (NCI-N87): > 200 nM
IC50 (SNU-5): > 200 nM
IC50 (D-247MG): 24.7 nM
IC50 (IST-SL1): 52.3 nM
IC50 (J-RT3-T3-5): 14.4 nM
IC50 (NOMO-1): > 200 nM
IC50 (PSN1): 3.84 nM
IC50 (C8166): > 200 nM
IC50 (GAK): > 200 nM
IC50 (DOHH-2): > 200 nM
IC50 (TE-8): 5.41 nM
IC50 (U-87 MG): > 200 nM
IC50 (DU-4475): 112 nM
IC50 (A704): 27.5 nM
IC50 (HEL): 7.08 nM
IC50 (RS4-11): > 200 nM
IC50 (SK-NEP-1): 76.1 nM
IC50 (NCI-H69): > 200 nM
IC50 (L-428): > 200 nM
IC50 (NKM-1): > 200 nM
IC50 (DEL): 19.2 nM
IC50 (RKO): 21 nM
IC50 (LXF-289 cell line): 14 nM
IC50 (CTV-1): > 200 nM
IC50 (HCE-4): 59.1 nM
IC50 (CGTH-W-1): 11 nM
IC50 (Becker): 22.3 nM
IC50 (ATN-1): > 200 nM
IC50 (SNU-C2B): > 200 nM
IC50 (U-266): 15.8 nM
IC50 (COLO-800): 29.9 nM
IC50 (NEC8): 11.5 nM
IC50 (NB10): 15.2 nM
IC50 (NCI-H1092): 90.1 nM
IC50 (EW-13): 19.8 nM
IC50 (OVCAR-4): 5.87 nM
IC50 (A498): 46.5 nM
IC50 (COLO-684): 9.21 nM
IC50 (TK-10): 42.3 nM
IC50 (COLO-829): 43.1 nM
IC50 (NCI-H526): > 200 nM
IC50 (NCI-H1770): > 200 nM
IC50 (LS-411N): 102 nM
IC50 (D283 Med): 40.9 nM

CN(C)CCOc1ccc(-c2nc(-c3ccncc3)c(-c3ccc4c(c3)CC/C4=N\O)[nH]2)cc1 [SB590885]
IC50 (UACC-257): 1130 nM
IC50 (BT-474): > 5000 nM
IC50 (COLO-320-HSR): > 5000 nM
IC50 (DMS-114): > 5000 nM
IC50 (KM-H2): > 5000 nM
IC50 (SNU1): 2900 nM
IC50 (NCI-N87): > 5000 nM
IC50 (SNU-5): 1580 nM
IC50 (D-247MG): > 5000 nM
IC50 (IST-SL1): > 5000 nM
IC50 (J-RT3-T3-5): > 5000 nM
IC50 (NOMO-1): > 5000 nM
IC50 (PSN1): 1870 nM
IC50 (C8166): > 5000 nM
IC50 (GAK): > 5000 nM
IC50 (DOHH-2): > 5000 nM
IC50 (TE-8): > 5000 nM
IC50 (U-87 MG): > 5000 nM
IC50 (DU-4475): 23.5 nM
IC50 (A704): > 5000 nM
IC50 (HEL): > 5000 nM
IC50 (RS4-11): > 5000 nM
IC50 (SK-NEP-1): > 5000 nM
IC50 (NCI-H69): > 5000 nM
IC50 (L-428): > 5000 nM
IC50 (NKM-1): 1670 nM
IC50 (DEL): > 5000 nM
IC50 (RKO): > 5000 nM
IC50 (LXF-289 cell line): > 5000 nM
IC50 (CTV-1): > 5000 nM
IC50 (HCE-4): > 5000 nM
IC50 (CGTH-W-1): > 5000 nM
IC50 (Becker): > 5000 nM
IC50 (ATN-1): > 5000 nM
IC50 (SNU-C2B): > 5000 nM
IC50 (U-266): > 5000 nM
IC50 (COLO-800): > 5000 nM
IC50 (NEC8): > 5000 nM
IC50 (NB10): > 5000 nM
IC50 (NCI-H1092): > 5000 nM
IC50 (EW-13): > 5000 nM
IC50 (OVCAR-4): > 5000 nM
IC50 (A498): > 5000 nM
IC50 (COLO-684): > 5000 nM
IC50 (TK-10): > 5000 nM
IC50 (COLO-829): 967 nM
IC50 (NCI-H526): > 5000 nM
IC50 (NCI-H1770): > 5000 nM
IC50 (LS-411N): > 5000 nM
IC50 (D283 Med): > 5000 nM
